This note sets out measurements from publication PMC3112382, “Crystal structures of a halophilic archaeal malate synthase from Haloferax volcanii and comparisons with isoforms A and G” (BMC Structural Biology, 2011).

The target of experiment [1] is T1, H. volcanii malate synthase isoform H (hvMSH) (Haloferax volcanii, UniProt D4GTL2).
T1 construct: gene aceB; full-length native enzyme, purified from H. volcanii grown on acetate, no tag; trimer/hexamer equilibrium
T1 sequence (D4GTL2 1-433): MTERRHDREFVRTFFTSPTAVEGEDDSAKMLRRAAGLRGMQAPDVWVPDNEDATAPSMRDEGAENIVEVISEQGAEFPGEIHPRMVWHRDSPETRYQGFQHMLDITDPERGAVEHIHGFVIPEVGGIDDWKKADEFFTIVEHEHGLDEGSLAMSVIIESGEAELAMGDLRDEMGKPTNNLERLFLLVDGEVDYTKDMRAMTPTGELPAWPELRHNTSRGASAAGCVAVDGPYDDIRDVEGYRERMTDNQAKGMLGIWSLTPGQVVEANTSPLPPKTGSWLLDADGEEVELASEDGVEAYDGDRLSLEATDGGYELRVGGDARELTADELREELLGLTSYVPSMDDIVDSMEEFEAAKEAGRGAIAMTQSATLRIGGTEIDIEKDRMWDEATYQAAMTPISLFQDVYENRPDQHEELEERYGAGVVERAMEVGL
Briefly: X-ray crystal structure, […] Å. Type of experiment: binding. The following applies: ~0.15 M acetyl-CoA, ~70 mM pyruvate, 50 mM MgCl2 soak, active site.

The target of experiment [2] is T1, H. volcanii malate synthase isoform H (hvMSH). As to the kind of experiment: X-ray crystal structure, […] Å. Format: binding. The following applies: ~0.1 M glyoxylate and ~0.1 M MgCl2 soak; active site, on Mg2+; second, weak glyoxylate at acetyl-CoA thioester position; low-occupancy complex (3 mM glyoxylate) is 3PUG.

SMILES strings stand for the structures.

For `CC(=O)SCCNC(=O)CCNC(=O)[C@H](O)C(C)(C)COP(=O)(O)OP(=O)(O)OC[C@H]1O[C@@H](n2cnc3c(N)ncnc32)[C@H](O)[C@@H]1OP(=O)(O)O` [acetyl-coenzyme A], the “X-ray crystal structure, 1.95 Å” value in experiment [1] (ternary complex with pyruvate) is listed as “one molecule of pyruvate, one molecule of acetyl-CoA, one magnesium ion”.

Consider `O=CC(=O)O` [glyoxylate], for which the “X-ray crystal structure, 2.51 Å” value in experiment [2] is reported as “One glyoxylate molecule is bound to the Mg2+ at the active site”.

Consider `CC(=O)C(=O)O` [pyruvate], for which the “X-ray crystal structure, 1.95 Å” value in experiment [1] (ternary complex with acetyl-CoA, glyoxylate position) is listed as “one molecule of pyruvate, one molecule of acetyl-CoA, one magnesium ion”.
